Like-named read-outs stand apart in the source and are kept apart here.
Columns and labels:
Assay in all cases: KINOMEscan assay (Eurofins DiscoverX)
Type in all cases: binding
[1] = biological target: T1, kinome (kinase panel) (Homo sapiens, UniProt O95747); details: OSR1 (Entrez OXSR1); 1000 nM; read-out: Percent Control
T1 construct: purchased Eurofins DiscoverX

[2] = biological target: T2, kinome (kinase panel) (Homo sapiens, UniProt Q92918); details: HPK1 (Entrez MAP4K1); 1000 nM; read-out: Percent Control
T2 construct: purchased Eurofins DiscoverX

[3] = biological target: T3, kinome (kinase panel) (Homo sapiens, UniProt P42336, H1047L); details: read-out: Percent Control
T3 construct: purchased Eurofins DiscoverX

[4] = biological target: T4, kinome (kinase panel) (Homo sapiens, UniProt P29597); details: 1000 nM, read-out: Percent Control
T4 construct: purchased Eurofins DiscoverX
T4 sequence (P29597 whole entry): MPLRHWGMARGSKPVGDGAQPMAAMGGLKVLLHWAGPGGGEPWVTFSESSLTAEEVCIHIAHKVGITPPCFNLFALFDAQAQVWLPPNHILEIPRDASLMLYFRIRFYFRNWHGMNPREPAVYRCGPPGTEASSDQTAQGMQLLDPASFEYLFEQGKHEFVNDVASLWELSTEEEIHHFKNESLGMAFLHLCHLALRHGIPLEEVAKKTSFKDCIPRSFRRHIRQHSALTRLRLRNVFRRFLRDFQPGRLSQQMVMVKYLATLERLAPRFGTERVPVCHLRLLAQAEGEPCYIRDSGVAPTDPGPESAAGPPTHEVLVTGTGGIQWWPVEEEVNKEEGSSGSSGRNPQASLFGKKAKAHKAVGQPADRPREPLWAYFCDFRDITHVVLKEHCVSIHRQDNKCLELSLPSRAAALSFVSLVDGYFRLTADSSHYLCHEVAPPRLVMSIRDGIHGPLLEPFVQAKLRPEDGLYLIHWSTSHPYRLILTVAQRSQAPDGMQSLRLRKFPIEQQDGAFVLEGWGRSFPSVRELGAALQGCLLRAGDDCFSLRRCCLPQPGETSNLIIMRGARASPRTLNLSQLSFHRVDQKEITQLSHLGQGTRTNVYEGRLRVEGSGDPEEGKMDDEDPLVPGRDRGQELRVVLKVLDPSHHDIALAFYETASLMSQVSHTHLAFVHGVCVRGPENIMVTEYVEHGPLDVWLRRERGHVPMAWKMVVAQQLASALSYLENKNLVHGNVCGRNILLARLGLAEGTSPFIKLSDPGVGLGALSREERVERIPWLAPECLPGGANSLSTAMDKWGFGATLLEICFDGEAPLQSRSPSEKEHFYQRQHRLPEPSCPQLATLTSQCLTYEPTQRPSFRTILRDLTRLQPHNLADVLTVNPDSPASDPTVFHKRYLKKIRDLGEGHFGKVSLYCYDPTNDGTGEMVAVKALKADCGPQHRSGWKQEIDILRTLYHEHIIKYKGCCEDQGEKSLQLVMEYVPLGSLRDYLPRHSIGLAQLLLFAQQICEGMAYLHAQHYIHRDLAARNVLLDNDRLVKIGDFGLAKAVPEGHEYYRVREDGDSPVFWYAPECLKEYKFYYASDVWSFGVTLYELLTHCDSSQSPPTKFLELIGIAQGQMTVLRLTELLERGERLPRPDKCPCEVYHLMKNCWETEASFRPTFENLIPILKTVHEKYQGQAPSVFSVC

[5] = biological target: T5, kinome (kinase panel) (Homo sapiens, UniProt Q9BQI3); details: EIF2AK1; 1000 nM; read-out: Percent Control
T5 construct: purchased Eurofins DiscoverX

[6] = biological target: T6, kinome (kinase panel) (Homo sapiens, UniProt Q9UHD2); details: TBK1; 1000 nM; read-out: Percent Control
T6 construct: purchased Eurofins DiscoverX

[7] = biological target: T7, kinome (kinase panel) (Homo sapiens, UniProt P21709); details: EPHA1; 1000 nM; read-out: Percent Control
T7 construct: purchased Eurofins DiscoverX

[8] = biological target: T8, kinome (kinase panel) (Homo sapiens, UniProt Q08345); details: DDR1; 1000 nM; read-out: Percent Control
T8 construct: purchased Eurofins DiscoverX

[9] = biological target: T9, kinome (kinase panel) (Homo sapiens, UniProt Q15835); details: GRK1; 1000 nM; read-out: Percent Control
T9 construct: purchased Eurofins DiscoverX

[10] = biological target: T10, kinome (kinase panel) (Homo sapiens, UniProt P41743); details: PRKCI; 1000 nM; read-out: Percent Control
T10 construct: purchased Eurofins DiscoverX

[11] = biological target: T11, kinome (kinase panel) (Homo sapiens, UniProt Q14164); details: IKK-epsilon (Entrez IKBKE); 1000 nM; read-out: Percent Control
T11 construct: purchased Eurofins DiscoverX

[12] = biological target: T12, kinome (kinase panel) (Homo sapiens, UniProt P10721, V559D); details: […]; 1000 nM; read-out: Percent Control
T12 construct: purchased Eurofins DiscoverX

[13] = biological target: T13, kinome (kinase panel) (Homo sapiens, UniProt Q13153); details: PAK1; 1000 nM; read-out: Percent Control
T13 construct: purchased Eurofins DiscoverX

[14] = biological target: T14, kinome (kinase panel) (Homo sapiens, UniProt Q9P0L2); details: MARK1; 1000 nM; read-out: Percent Control
T14 construct: purchased Eurofins DiscoverX

[15] = biological target: T15, kinome (kinase panel) (Homo sapiens, UniProt P25098); details: GRK2 (Entrez ADRBK1); 1000 nM; read-out: Percent Control
T15 construct: purchased Eurofins DiscoverX

[16] = biological target: T16, kinome (kinase panel) (Homo sapiens, UniProt P07333); details: 1000 nM, read-out: Percent Control
T16 construct: purchased Eurofins DiscoverX
T16 sequence (P07333 20-972): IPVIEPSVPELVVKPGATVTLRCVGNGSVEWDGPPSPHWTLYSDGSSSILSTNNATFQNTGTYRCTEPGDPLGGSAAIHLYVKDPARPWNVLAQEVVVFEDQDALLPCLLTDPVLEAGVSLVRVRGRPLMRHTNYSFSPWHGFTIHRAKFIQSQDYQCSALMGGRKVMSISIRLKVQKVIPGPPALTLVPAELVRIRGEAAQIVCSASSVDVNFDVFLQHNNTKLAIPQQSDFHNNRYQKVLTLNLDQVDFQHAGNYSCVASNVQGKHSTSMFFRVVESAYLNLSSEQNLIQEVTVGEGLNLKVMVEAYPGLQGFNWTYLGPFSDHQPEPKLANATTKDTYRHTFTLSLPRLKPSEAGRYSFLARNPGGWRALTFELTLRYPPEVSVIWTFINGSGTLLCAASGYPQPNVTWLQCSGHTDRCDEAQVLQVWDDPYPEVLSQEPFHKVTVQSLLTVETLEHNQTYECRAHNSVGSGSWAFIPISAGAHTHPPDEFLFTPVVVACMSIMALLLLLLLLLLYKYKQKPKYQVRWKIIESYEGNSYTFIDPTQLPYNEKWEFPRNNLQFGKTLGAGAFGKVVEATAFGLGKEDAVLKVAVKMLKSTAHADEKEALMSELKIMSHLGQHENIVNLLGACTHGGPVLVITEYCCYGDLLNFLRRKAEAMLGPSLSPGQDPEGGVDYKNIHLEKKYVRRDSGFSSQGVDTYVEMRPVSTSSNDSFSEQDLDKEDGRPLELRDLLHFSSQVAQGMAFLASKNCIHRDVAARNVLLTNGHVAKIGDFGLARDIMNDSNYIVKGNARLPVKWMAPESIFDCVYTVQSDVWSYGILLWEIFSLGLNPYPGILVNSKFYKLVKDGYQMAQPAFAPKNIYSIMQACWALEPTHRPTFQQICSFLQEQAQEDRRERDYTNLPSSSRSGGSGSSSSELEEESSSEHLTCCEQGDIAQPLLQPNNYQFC

[17] = biological target: T17, kinome (kinase panel) (Homo sapiens, UniProt Q9UL54); details: TAOK2; 1000 nM; read-out: Percent Control
T17 construct: purchased Eurofins DiscoverX

[18] = biological target: T18, kinome (kinase panel) (Homo sapiens, UniProt P36888, D835H); details: […]; 1000 nM; read-out: Percent Control
T18 construct: purchased Eurofins DiscoverX

[19] = biological target: T19, kinome (kinase panel) (Homo sapiens, UniProt Q16513); details: PKN2; 1000 nM; read-out: Percent Control
T19 construct: purchased Eurofins DiscoverX

[20] = biological target: T20, kinome (kinase panel) (Homo sapiens, UniProt P54753); details: EPHB3; 1000 nM; read-out: Percent Control
T20 construct: purchased Eurofins DiscoverX
T20 sequence (P54753 34-998): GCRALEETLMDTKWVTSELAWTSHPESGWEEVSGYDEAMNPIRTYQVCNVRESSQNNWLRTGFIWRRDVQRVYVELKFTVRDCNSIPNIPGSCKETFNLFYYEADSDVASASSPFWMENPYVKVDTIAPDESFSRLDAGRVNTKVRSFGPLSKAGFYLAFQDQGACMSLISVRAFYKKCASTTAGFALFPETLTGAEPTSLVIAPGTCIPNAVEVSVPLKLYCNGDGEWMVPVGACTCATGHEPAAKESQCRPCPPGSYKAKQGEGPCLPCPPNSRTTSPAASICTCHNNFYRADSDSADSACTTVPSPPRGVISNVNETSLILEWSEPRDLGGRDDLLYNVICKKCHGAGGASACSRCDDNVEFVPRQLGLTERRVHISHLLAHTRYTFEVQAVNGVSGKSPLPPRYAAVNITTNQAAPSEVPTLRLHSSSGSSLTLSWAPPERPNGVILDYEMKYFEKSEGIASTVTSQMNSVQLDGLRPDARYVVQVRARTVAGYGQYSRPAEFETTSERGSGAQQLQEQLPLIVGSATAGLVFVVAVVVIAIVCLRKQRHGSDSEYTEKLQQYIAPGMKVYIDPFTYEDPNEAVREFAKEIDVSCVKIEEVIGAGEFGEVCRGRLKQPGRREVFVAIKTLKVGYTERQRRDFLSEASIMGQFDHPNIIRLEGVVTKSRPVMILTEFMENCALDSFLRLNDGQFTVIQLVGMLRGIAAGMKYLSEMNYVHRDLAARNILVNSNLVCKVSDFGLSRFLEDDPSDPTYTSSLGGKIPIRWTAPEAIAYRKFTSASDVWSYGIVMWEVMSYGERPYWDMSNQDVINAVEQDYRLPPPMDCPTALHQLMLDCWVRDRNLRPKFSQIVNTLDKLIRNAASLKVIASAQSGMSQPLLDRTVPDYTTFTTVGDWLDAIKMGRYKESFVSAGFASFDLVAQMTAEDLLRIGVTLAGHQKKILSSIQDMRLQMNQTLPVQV

[21] = biological target: T21, kinome (kinase panel) (Homo sapiens, UniProt P49137); details: MAPKAPK2; 1000 nM; read-out: Percent Control
T21 construct: purchased Eurofins DiscoverX

[22] = biological target: T22, kinome (kinase panel) (Homo sapiens, UniProt Q9NRM7); details: LATS2; 1000 nM; read-out: Percent Control
T22 construct: purchased Eurofins DiscoverX
T22 sequence (Q9NRM7 whole entry): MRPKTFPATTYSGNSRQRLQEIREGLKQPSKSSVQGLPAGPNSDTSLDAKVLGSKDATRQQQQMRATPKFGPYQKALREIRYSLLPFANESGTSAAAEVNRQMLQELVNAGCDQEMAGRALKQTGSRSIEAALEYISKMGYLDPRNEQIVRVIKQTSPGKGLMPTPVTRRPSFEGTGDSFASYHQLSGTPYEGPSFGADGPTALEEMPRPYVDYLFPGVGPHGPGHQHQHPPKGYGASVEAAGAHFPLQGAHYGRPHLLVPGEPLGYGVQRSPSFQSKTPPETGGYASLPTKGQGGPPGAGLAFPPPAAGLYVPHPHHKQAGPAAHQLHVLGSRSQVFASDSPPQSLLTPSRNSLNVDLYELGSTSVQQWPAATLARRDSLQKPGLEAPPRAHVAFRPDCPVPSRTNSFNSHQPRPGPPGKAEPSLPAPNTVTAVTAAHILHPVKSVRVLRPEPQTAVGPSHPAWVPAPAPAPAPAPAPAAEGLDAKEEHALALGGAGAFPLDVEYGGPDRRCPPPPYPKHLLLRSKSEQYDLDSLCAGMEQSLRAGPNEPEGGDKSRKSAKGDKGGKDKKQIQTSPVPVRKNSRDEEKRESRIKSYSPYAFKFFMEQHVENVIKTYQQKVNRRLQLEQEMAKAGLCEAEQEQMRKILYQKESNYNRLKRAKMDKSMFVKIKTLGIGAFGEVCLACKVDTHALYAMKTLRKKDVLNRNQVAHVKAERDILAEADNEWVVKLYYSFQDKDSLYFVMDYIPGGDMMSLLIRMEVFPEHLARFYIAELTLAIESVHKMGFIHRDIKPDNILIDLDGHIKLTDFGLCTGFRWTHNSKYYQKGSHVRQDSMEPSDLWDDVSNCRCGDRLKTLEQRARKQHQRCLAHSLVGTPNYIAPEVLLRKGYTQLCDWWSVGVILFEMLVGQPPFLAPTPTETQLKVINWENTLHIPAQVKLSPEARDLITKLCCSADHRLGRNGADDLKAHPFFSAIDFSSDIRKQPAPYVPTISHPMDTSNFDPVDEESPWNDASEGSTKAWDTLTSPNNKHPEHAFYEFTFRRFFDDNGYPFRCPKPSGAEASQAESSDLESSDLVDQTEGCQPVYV

[23] = biological target: T23, kinome (kinase panel) (Homo sapiens, UniProt P27361); details: ERK1 (Entrez MAPK3); 1000 nM; read-out: Percent Control
T23 construct: purchased Eurofins DiscoverX
T23 sequence (P27361 whole entry): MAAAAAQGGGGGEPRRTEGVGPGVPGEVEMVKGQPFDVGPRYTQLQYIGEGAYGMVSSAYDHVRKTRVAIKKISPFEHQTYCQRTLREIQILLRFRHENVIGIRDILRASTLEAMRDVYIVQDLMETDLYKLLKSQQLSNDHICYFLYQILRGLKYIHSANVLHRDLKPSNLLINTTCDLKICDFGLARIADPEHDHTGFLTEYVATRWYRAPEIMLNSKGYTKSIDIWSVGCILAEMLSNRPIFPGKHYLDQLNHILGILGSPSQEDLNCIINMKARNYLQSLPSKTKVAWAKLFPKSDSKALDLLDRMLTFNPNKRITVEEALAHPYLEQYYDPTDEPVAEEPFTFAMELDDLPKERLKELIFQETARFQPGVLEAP

[24] = biological target: T24, kinome (kinase panel) (Homo sapiens, UniProt P10721, L576P); details: […]; 1000 nM; read-out: Percent Control
T24 construct: purchased Eurofins DiscoverX

[25] = biological target: T25, kinome (kinase panel) (Homo sapiens, UniProt O00141); details: SGK (SGK1); 1000 nM; read-out: Percent Control
T25 construct: purchased Eurofins DiscoverX

[26] = biological target: T26, kinome (kinase panel) (Homo sapiens, UniProt O75747); details: PIK3C2G; 1000 nM; read-out: Percent Control
T26 construct: purchased Eurofins DiscoverX

[27] = biological target: T27, kinome (kinase panel) (Homo sapiens, UniProt P21860); details: ERBB3; 1000 nM; read-out: Percent Control
T27 construct: purchased Eurofins DiscoverX

[28] = biological target: T28, kinome (kinase panel) (Homo sapiens, UniProt P42336, H1047Y); details: read-out: Percent Control
T28 construct: purchased Eurofins DiscoverX

[29] = biological target: T29, kinome (kinase panel) (Homo sapiens, UniProt O15146); details: MUSK; 1000 nM; read-out: Percent Control
T29 construct: purchased Eurofins DiscoverX

[30] = biological target: T30, kinome (kinase panel) (Homo sapiens, UniProt O75914); details: PAK3; 1000 nM; read-out: Percent Control
T30 construct: purchased Eurofins DiscoverX

[31] = biological target: T31, kinome (kinase panel) (Homo sapiens, UniProt P06239); details: LCK; 1000 nM; read-out: Percent Control
T31 construct: purchased Eurofins DiscoverX
T31 sequence (P06239 whole entry): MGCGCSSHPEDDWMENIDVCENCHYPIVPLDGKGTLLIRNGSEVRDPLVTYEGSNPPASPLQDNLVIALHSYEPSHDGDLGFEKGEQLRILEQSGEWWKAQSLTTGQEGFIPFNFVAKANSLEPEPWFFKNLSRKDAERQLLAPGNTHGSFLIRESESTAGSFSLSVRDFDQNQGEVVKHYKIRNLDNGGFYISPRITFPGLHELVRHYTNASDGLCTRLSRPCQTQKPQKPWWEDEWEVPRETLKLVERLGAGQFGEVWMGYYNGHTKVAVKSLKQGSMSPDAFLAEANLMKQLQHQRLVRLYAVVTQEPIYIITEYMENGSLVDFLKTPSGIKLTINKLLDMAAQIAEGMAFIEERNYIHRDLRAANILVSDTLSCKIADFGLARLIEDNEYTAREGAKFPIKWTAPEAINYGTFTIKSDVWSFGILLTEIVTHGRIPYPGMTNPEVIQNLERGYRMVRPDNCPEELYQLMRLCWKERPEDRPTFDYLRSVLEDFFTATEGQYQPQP

[32] = biological target: T32, kinome (kinase panel) (Homo sapiens, UniProt Q07912); details: TNK2; 1000 nM; read-out: Percent Control
T32 construct: purchased Eurofins DiscoverX

[33] = biological target: T33, kinome (kinase panel) (Homo sapiens, UniProt Q5S007); details: LRRK2; 1000 nM; read-out: Percent Control
T33 construct: purchased Eurofins DiscoverX

CN(C)C(=O)c1cc2cnc(Nc3ccc(-c4csc5c(=O)cc(N6CCOCC6)oc45)cc3)nc2n1C1CCCC1 [SRX3177]
remaining binding at 1 µM [1]: 88%
remaining binding at 1 µM [2]: 100%
remaining binding at 1 µM [3]: 41%
remaining binding at 1 µM ([4]; TYK2(JH1domain-catalytic)): 69%
remaining binding at 1 µM ([4]; TYK2(JH2domain-pseudokinase)): 9.7%
remaining binding at 1 µM [5]: 79%
remaining binding at 1 µM [6]: 16%
remaining binding at 1 µM [7]: 79%
remaining binding at 1 µM [8]: 72%
remaining binding at 1 µM [9]: 79%
remaining binding at 1 µM [10]: 89%
remaining binding at 1 µM [11]: 51%
remaining binding at 1 µM [12]: 49%
remaining binding at 1 µM [13]: 90%
remaining binding at 1 µM [14]: 100%
remaining binding at 1 µM [15]: 73%
remaining binding at 1 µM ([16]; CSF1R-autoinhibited): 60%
remaining binding at 1 µM ([16]; CSF1R): 100%
remaining binding at 1 µM [17]: 20%
remaining binding at 1 µM [18]: 8.9%
remaining binding at 1 µM [19]: 70%
remaining binding at 1 µM [20]: 97%
remaining binding at 1 µM [21]: 100%
remaining binding at 1 µM [22]: 42%
remaining binding at 1 µM [23]: 100%
remaining binding at 1 µM [24]: 58%
remaining binding at 1 µM [25]: 56%
remaining binding at 1 µM [26]: 100%
remaining binding at 1 µM [27]: 59%
remaining binding at 1 µM [28]: 34%
remaining binding at 1 µM [29]: 95%
remaining binding at 1 µM [30]: 100%
remaining binding at 1 µM [31]: 79%
remaining binding at 1 µM [32]: 90%
remaining binding at 1 µM [33]: 34%

— publication PMC7385619, “A triple action CDK4/6-PI3K-BET inhibitor with augmented cancer cell cytotoxicity” (Cell Discovery, 2020)
